Reference: PMC12399242 (Acta Pharmaceutica Sinica. B, 2025)
Entries after “also recorded” stand apart in the source; their conditions may differ. Where two headings read alike, the source gives them in different places.

Assays:
[1] = molecular target: T1, CYP2D6 (Homo sapiens, UniProt P10635); assay: CYP enzyme inhibition assay, CYP2D6; type: in vitro ADME; conditions: human liver microsomes; read-out: IC50 CYP2D6
T1 construct: An incubation system of human liver microsomes (20 μL, 1.5 mg/mL); from tissue; host or cells: human liver microsomes
Method: (§1) An incubation system of human liver microsomes (20 μL, 1.5 mg/mL), 20 μL probe substrates, and 50 μL test compound in Tris (0.1 mol/L) was pre-incubated at 37 °C for 10 min, and then initiated by adding NADPH (10 μL, 10 mmol/L). The system was incubated for another 15 min and subsequently terminated by 100 μL MeCN containing internal standard (propranolol, nadolol). Finally, the sample was centrifugated to obtain the supernatant for LC‒MS/MS analysis.

[2] = PK study in SD rats; type: in vivo; conditions: male, Sprague-Dawley, plasma, SD rat; for half-life: mean ± SD, n = 3; for MRT last: read-out: MRT0–t; for MRT inf: read-out: MRT0–∞
Method: All animal treatments were conducted using an approved protocol of Fudan University (2020CHEM-JS-009). A12 was dissolved in a mixture of DMSO/Solutol HS 15/normal saline (10/10/80, v/v/v). Six Sprague–Dawley rats (male, 180−220 g) were assigned into two groups (n = 3) randomly to receive i.v. (1 mg/kg) or p.o. administration (10 mg/kg) of A12. At the time points of 5, 15, 30 min, 1, 2, 4, 6, 8, 10, 12, and 24 h, blood samples were collected and centrifuged (4 °C, 4500 rpm, 10 min) to obtain plasma. Before LC‒MS/MS analysis, the plasma needs to be stored at −80 °C. Subsequently, 120 μL of MeCN containing internal standard was added to 30 μL of plasma. The mixture was shaken and centrifuged (4 °C, 10,000 rpm, 15 min) to afford the supernatant layer for LC‒MS/MS analysis. Finally, The WinNolin software was applied to calculate the pharmacokinetic parameters.

[3] = test system: HIV-1 Y188L; assay: Antiviral activity against HIV-1 mutant Y188L in MT-4 cells; type: cell-based; conditions: Human immunodeficiency virus 1, MT4, read-out: EC50 Y188L
[4] = test system: HIV-1 F227L + V106A; assay: microbe, parasite or virus in culture; type: cell-based; conditions: Human immunodeficiency virus 1, MT4, read-out: EC50 F227L + V106A
[5] = test system: HIV-1 E138K; assay: Antiviral activity against HIV-1 mutant E138K in MT-4 cells; type: cell-based; conditions: Human immunodeficiency virus 1, MT4, read-out: EC50 E138K
[6] = test system: ICR mice; assay: Acute toxicity assay in ICR mice; type: in vivo
Method: A12 was suspended in PEG400/normal saline (80/20, v/v) to achieve a concentration of 100 mg/ml. Sixteen ICR mice (eight male/eight female, 18–22 g) were assigned into 4 groups randomly, and each group contained 4 male mice or 4 female mice (n = 4). […] Over the next two weeks, the mortality, body weight, and abnormal behaviors of these mice were monitored daily. All mice were dissected after blood collection on Day 14, and several vital organs were removed and then assessed for pathological damage by HE staining. The collected blood was submitted for blood biochemistry testing.

[7] = molecular target: T2, CYP3A4-T (Homo sapiens, UniProt P08684); assay: CYP enzyme inhibition assay, CYP3A4-T; type: in vitro ADME; conditions: human liver microsomes
T2 construct: An incubation system of human liver microsomes (20 μL, 1.5 mg/mL); from tissue; host or cells: human liver microsomes
Method: as §1

[8] = test system: HIV-1 mutant strains; assay: Antiviral activity against panel of HIV-1 mutant strains (summary ranges); type: cell-based
[9] = Plasma protein binding assay (equilibrium dialysis); type: in vitro ADME; conditions: rat plasma, dialysis 37 °C, read-out: plasma protein binding rate (%PPB) (converted)
Method: The DMSO solution of A12 was diluted to 100 μmol/L with MeOH:H2O (1:1) and then added to the pre-loaded plasma to obtain plasma samples with a test concentration of 1 μmol/L. Subsequently, 100 μL of control dialysis buffer (phosphate buffer + 0.002% Tween-80) and 100 μL of A12 plasma sample were transferred to the receiver and the donor side of dialysis chambers, respectively, two copies of each sample. The dialysis system was incubated in a shaker (37 °C, 6 h). Upon completion, 20 μL of samples were removed from each of the buffer and plasma chambers. After adding aliquots control plasma, PBS (0.002% Tween-80) respectively, 250 μL methanol solution with internal standard was added into each sample. The solution was mixed and centrifuged (3800 rpm, 10 min) to obtain the supernatant for LC‒MS/MS analysis.

[10] = test system: six CYP isoenzymes (not named; range over all six); assay: CYP inhibition, six isoenzymes (summary range); type: in vitro ADME; conditions: human, human liver microsomes
Method: as §1

[11] = molecular target: T3, CYP1A2 (Homo sapiens, UniProt P05177); assay: CYP enzyme inhibition assay, CYP1A2; type: in vitro ADME; conditions: human liver microsomes
T3 construct: An incubation system of human liver microsomes (20 μL, 1.5 mg/mL); from tissue; host or cells: human liver microsomes
Method: (§2) An incubation system of human liver microsomes (20 μL, 1.5 mg/mL), 20 μL probe substrates, and 50 μL test compound in Tris (0.1 mol/L) was pre-incubated at 37 °C for 10 min, and then initiated by adding NADPH (10 μL, 10 mmol/L). […] Finally, the sample was centrifugated to obtain the supernatant for LC‒MS/MS analysis.

[12] = molecular target: CYP3A4-M (Homo sapiens, UniProt P08684); assay: CYP enzyme inhibition assay, CYP3A4-M; type: in vitro ADME; set-up: An incubation system of human liver microsomes (20 μL, 1.5 mg/mL); from tissue; host or cells: human liver microsomes; conditions: human liver microsomes
Method: as §2

[13] = test system: HIV-1 K103N + Y181C (RES056); assay: Antiviral activity against HIV-1 double mutant K103N + Y181C (RES056) in MT-4 cells; type: cell-based; conditions: Human immunodeficiency virus 1, MT4, read-out: EC50 K103N + Y181C
[14] = molecular target: T4, CYP2C19 (Homo sapiens, UniProt P33261); assay: CYP enzyme inhibition assay, CYP2C19; type: in vitro ADME; conditions: human liver microsomes
T4 construct: An incubation system of human liver microsomes (20 μL, 1.5 mg/mL); from tissue; host or cells: human liver microsomes
Method: as §2

T3 sequence (P05177 whole entry): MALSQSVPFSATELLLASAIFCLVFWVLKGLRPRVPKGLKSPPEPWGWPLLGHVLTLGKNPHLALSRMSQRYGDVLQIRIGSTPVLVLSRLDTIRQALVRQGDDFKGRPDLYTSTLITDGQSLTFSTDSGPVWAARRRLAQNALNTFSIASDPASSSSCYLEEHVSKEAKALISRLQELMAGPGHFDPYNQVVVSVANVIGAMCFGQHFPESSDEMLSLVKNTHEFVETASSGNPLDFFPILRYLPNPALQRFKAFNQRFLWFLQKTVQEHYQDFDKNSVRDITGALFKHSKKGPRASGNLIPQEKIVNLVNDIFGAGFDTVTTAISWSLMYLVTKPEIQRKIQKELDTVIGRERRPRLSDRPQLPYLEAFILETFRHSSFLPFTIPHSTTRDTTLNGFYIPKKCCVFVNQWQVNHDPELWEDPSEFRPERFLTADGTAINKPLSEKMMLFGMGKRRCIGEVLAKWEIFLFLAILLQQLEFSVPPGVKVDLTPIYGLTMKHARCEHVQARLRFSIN
CYP3A4-M, sequence (P08684 whole entry): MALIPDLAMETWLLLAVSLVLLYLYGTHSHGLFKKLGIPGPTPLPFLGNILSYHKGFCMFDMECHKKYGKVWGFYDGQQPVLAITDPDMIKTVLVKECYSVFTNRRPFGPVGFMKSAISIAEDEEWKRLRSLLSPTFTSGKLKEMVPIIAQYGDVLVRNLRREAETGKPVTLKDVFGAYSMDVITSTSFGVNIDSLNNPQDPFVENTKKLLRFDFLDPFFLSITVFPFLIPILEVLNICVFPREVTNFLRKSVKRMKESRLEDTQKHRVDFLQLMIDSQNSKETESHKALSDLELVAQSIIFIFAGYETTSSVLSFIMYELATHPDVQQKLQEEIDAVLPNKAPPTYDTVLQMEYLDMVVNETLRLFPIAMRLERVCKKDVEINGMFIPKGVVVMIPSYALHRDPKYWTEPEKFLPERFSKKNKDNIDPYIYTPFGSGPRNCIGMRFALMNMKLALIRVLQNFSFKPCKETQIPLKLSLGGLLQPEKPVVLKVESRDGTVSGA
T2 sequence (P08684 whole entry): as above
T4 sequence (P33261 whole entry): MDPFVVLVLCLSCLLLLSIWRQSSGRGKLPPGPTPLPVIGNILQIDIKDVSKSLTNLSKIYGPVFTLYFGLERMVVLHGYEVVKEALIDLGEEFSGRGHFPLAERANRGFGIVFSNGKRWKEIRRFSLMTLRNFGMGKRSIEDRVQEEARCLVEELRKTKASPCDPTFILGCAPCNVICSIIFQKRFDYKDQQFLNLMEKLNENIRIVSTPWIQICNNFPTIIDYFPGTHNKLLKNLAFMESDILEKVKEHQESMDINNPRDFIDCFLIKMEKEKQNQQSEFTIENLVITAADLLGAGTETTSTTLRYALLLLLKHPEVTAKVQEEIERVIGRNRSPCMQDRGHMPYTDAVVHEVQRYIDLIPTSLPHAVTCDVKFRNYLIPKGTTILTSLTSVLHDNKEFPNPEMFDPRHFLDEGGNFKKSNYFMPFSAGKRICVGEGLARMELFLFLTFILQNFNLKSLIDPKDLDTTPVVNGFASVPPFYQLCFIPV
T1 sequence (P10635 whole entry): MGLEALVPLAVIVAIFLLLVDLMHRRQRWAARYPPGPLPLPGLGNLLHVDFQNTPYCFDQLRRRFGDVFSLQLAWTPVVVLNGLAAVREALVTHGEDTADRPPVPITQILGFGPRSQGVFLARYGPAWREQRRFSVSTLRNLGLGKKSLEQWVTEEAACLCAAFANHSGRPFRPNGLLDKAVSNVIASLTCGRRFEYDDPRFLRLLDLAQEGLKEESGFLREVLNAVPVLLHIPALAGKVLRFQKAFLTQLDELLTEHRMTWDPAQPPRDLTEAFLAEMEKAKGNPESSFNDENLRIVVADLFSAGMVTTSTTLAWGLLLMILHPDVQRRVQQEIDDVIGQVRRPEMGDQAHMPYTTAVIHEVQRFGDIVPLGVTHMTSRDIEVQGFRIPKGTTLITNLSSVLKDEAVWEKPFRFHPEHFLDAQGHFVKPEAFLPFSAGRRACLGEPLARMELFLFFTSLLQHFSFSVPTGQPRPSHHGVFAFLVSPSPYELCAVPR

Compound: Cc1cc(-c2ccc(C#N)cc2)cc(C)c1Nc1nc(Nc2ccc(C#N)cc2)ncc1F [A12, 4′-((2-((4-Cyanophenyl)amino)-5-fluoropyrimidin-4-yl)amino)-3′,5′-dimethyl-[1,1′-biphenyl]-4-carbonitrile]
- IC50 [1]: 14500 nM
- AUC(0-inf) ([2]; iv, 1.0 mg/kg i.v.): 3060 ± 139 ng·h/mL
- AUC(0-t) ([2]; iv, 1.0 mg/kg i.v.): 3000 ± 142 ng·h/mL
- Cmax ([2]; iv, 1.0 mg/kg i.v.): 2350 ± 178 ng/mL
- Tmax ([2]; iv, 1.0 mg/kg i.v.): 0.0833 h
- half-life ([2]; iv, 1.0 mg/kg i.v.): 5.53 ± 2.04 h
- MRT last ([2]; iv, 1.0 mg/kg i.v.): 3.25 ± 0.575 h
- MRT inf ([2]; iv, 1.0 mg/kg i.v.): 3.89 ± 1.03 h
- bioavailability ([2]; oral, 10.0 mg/kg p.o. vs 1.0 mg/kg i.v., read-out: F (oral bioavailability)): 29.2 ± 6%
- AUC(0-inf) ([2]; po, 10.0 mg/kg p.o.): 8930 ± 1850 ng·h/mL
- AUC(0-t) ([2]; po, 10.0 mg/kg p.o.): 7340 ± 1890 ng·h/mL
- Cmax ([2]; po, 10.0 mg/kg p.o.): 1390 ± 422 ng/mL
- Tmax ([2]; po, 10.0 mg/kg p.o.): 1 h
- half-life ([2]; po, 10.0 mg/kg p.o.): 13.6 ± 6.64 h
- MRT last ([2]; po, 10.0 mg/kg p.o.): 6.18 ± 0.306 h
- MRT inf ([2]; po, 10.0 mg/kg p.o.): 13.5 ± 6.49 h
- EC50 [3]: 60 ± 9.2 nM
- EC50 [4]: 157 ± 64 nM
- EC50 [5]: 6 ± 0.5 nM
- HE staining of vital organs (brain, heart, liver, spleen, lung, kidney) ([6]; 2 g/kg i.g., Day 14): does not show any discernible pathological alteration in vital organs; also recorded: no notable pathological alterations were detected in the vital organs
- blood biochemical parameters (ALT, AST, CREA, UREA, CKMB) ([6]; 2 g/kg i.g., fourteen days after administration, vs control): no significant differences in blood biochemical parameters
- mortality ([6]; male and female, single dose 2 g/kg i.g., 14 days): No instances of mortality were recorded
- acute toxicity, overall ([6]; single dose 2 g/kg): excellent tolerance at doses reaching 2 g/kg, without any manifestation of immediate toxicity
- abnormal behavior ([6]; single dose 2 g/kg i.g., 14 days): no noteworthy deviations in behavior were detected
- body weight growth ([6]; single dose 2 g/kg i.g., vs control group): growth patterns similar to that shown by the control group
- IC50 [7]: > 25000 nM
- EC50 ([8]; Human immunodeficiency virus 1, read-out: EC50 mutant strains L100I, K103N, Y181C, and E138K): 1.7 to 7.1 nM
- EC50 ([8]; Human immunodeficiency virus 1, read-out: EC50 seven mutant strains): 1.7 to 157 nM
- fraction unbound at 6 h, 1 μmol/L [9]: 0.005
- IC50 at 15 min [10]: 6990 to 25000 nM
- IC50 [11]: > 25000 nM
- IC50 [12]: > 25000 nM
- EC50 [13]: 44 ± 18 nM
- IC50 [14]: 14500 nM
